pEC50, pIC50: −log10 of the molar value.
Tests used:
[1] = test system: MT4; test: Inhibitory activity of compound was determined against HIV-1 replication in MT-4 cells; […]; format: functional, cell-based; settings: Homo sapiens
[2] = test system: MT4; test: Inhibitory activity against HIV-1 replication in MT-4 cells; not cytotoxic; format: functional, cell-based; settings: Homo sapiens
[3] = test system: MT4; test: Inhibitory activity of compound was determined against HIV-1 replication in MT-4 cells; weak activity; format: functional, cell-based; settings: Homo sapiens
[4] = test system: MT4; test: Inhibitory activity against HIV-1 replication in MT-4 cells; Not cytotoxic; format: functional, cell-based; settings: Homo sapiens
[5] = test system: MT4; test: Inhibitory activity of compound was determined against HIV-1 replication in MT-4 cells; format: functional, cell-based; settings: Homo sapiens
[6] = test system: MT4; test: Compound was tested for its […] in MT-4 cells; format: functional; settings: Homo sapiens, read-out: CD50 (the source's name)

Compound | pEC50 [1] | pIC50 [2] | also measured
Nc1ccn([C@H]2CO[C@H](CP(=O)(O)O)O2)c(=O)n1 | < 3.48 | < 3.48 | 
CC(=O)Nc1ccn(C2COC(CP(=O)(O)O)O2)c(=O)n1 (stereo not given) |  |  | pEC50 [3]: 3.51
Cc1cn([C@H]2CO[C@H](CP(=O)(O)O)O2)c(=O)[nH]c1=O | < 3.48 | < 3.48 | 
Nc1nc(O)c2ncn([C@H]3CO[C@H](CP(=O)(O)O)O3)c2n1 | < 3.48 |  | pIC50 [4]: < 3.48
Nc1ccn([C@H]2CO[C@@H](CP(=O)(O)O)O2)c(=O)n1 | 3.51 | < 3.48 | 
Cc1cn([C@H]2CO[C@@H](CP(=O)(O)O)O2)c(=O)[nH]c1=O | < 3.48 | < 3.48 | 
Nc1nc(O)c2ncn([C@H]3CO[C@@H](CP(=O)(O)O)O3)c2n1 | < 3.48 | < 3.48 | 
Cc1cn(C2COC(CO[PH](=O)O)O2)c(=O)[nH]c1=O (stereo not given) |  |  | pEC50 [5]: 4.29; CC50 [6]: 342 µM
